From patent US20210145716A9, “COMPOSITION FOR HAIR FRIZZ REDUCTION” (The Procter & Gamble Company, priority 2015, published 2021)

Assay: Expert rating of hair switches for frizz, clean feel and greasy feel
Conditions: 1% in ethanol/water leave-on, pH 4.2
Method: Additional leave-on treatment compositions are prepared (Tables 1 and 2) according to the procedure described above, which are used to treat hair switches using the procedure described above (amount of 0.10 g of composition per g of hair). The switch is kept at high humidity (above 85%) for 2 hours. Then, ten experts are asked to rate each hair switch in terms of frizz, clean feel, and greasy feel, based on a 5 point scale, 5 being the highest and 1 being the lowest rating. Acceptable values are: • For frizz, less than 2 (lower number corresponds to less frizz); • For no greasy feel less than 3, (lower number corresponds to less greasy feel), and • For clean feel greater than 3 (higher number corresponds to cleaner feel).

| Structure (SMILES) | Hair switch rating summary (in words) |
| --- | --- |
| O=C(O)c1ccc(O)cc1O [2,4-Dihydroxybenzoic acid] | fizz protection with clean feel and without greasy feel negative |
| CCCCCCCCC(CO)CCCCCC (stereo not shown) [2-Hexyl-1-decanol] | frizz protection with clean feel and without greasy feel negative |
| O=C(OCCO)c1ccccc1O [2-Hydroxyethyl salicylate] | frizz protection with clean feel and without greasy feel negative |
| O=S(=O)(O)c1ccc(O)cc1 [4-Hydroxybenzenesulphonic acid] | fizz protection with clean feel and without greasy feel negative |
| O=C(O)c1cc(Cl)ccc1O [5-Chlorosalicylic acid] | fizz protection with clean feel and without greasy feel negative |
| CC(C)CCCCCCCCCCCCCCCOC(=O)CCCCCCCCCCCCCCC(C)C [Isostearyl isostearate] | frizz protection with clean feel and without greasy feel negative |
| O=C(O)c1ccccc1O [Salicylic acid] | fizz protection with clean feel and without greasy feel negative |
